Measurements as given in PubChem BioAssay (NCI).
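Each compound was tested at five concentrations against cells in 96-well plates for 48 hours. TGI is the concentration that stops growth completely.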 Where a SMILES comes first, the peptide text is derived from it. The star is where a group is joined. ONb = O=[N+]([O-])c1ccc(CO*)cc1; Boc = CC(C)(C)OC(=O)*

Assays:
Assay in all cases: NCI-60 cell line screen, 48 h
BT-549 breast = test system: BT-549 breast
T-47D breast = test system: T-47D breast
U251 CNS = test system: U251 CNS
OVCAR-5 ovarian = test system: OVCAR-5 ovarian
SK-MEL-5 melanoma = test system: SK-MEL-5 melanoma
OVCAR-8 ovarian = test system: OVCAR-8 ovarian
SK-MEL-2 melanoma = test system: SK-MEL-2 melanoma
MALME-3M melanoma = test system: MALME-3M melanoma
HS 578T breast = test system: HS 578T breast
SW-620 colon = test system: SW-620 colon

| SMILES | TGI (BT-549 breast) [µM] | TGI (T-47D breast) [µM] | TGI (U251 CNS) [µM] | TGI (OVCAR-5 ovarian) [µM] | TGI (SK-MEL-5 melanoma) [µM] | TGI (OVCAR-8 ovarian) [µM] | TGI (SK-MEL-2 melanoma) [µM] | TGI (MALME-3M melanoma) [µM] | TGI (HS 578T breast) [µM] | TGI (SW-620 colon) [µM] |
| --- | --- | --- | --- | --- | --- | --- | --- | --- | --- | --- |
| O=C(/C=C/c1ccc(O)c(O)c1)c1cc(O)cc(O)c1 | 24.7 | 29.3 | 22.7 | 28.9 | > 100 | 32.8 | 28.2 | 27.6 | 70.5 | – |
| O=c1oc2cc(O)ccc2c(O)c1C(c1cccnc1)c1c(O)c2ccc(O)cc2oc1=O | > 100 | > 100 | > 100 | > 100 | > 100 | > 100 | > 100 | – | > 100 | > 100 |
| CN(C)c1ccccc1CN1CCCN(Cc2ccccc2N(C)C)C1c1ccncc1 | 34.6 | 38.7 | > 100 | 40.9 | 18.3 | 29 | 36.5 | 23.4 | 41.8 | 42.2 |
| CCOC(=O)NC(NC1=NCCS1)(C(=O)OCC)C(F)(F)F (configuration not stated) | – | > 100 | > 100 | > 100 | > 100 | > 100 | > 100 | > 100 | > 100 | > 100 |
| COC1(OC)CC(CO)(CNc2cc(Cl)nc(N)n2)C1 | > 100 | > 100 | > 100 | > 100 | > 100 | > 100 | > 100 | > 100 | > 100 | > 100 |
| CCSc1cc(=O)n(C)c(=O)n1C | > 100 | > 100 | > 100 | > 100 | > 100 | > 100 | > 100 | > 100 | > 100 | > 100 |
| C/C(=C/C(=O)Nn1c(Cc2ccccc2)n[nH]c1=O)C(=O)O | > 100 | > 100 | > 100 | > 100 | > 100 | > 100 | > 100 | > 100 | > 100 | > 100 |
| Cn1c2ccccc2c2c(=O)[nH]c(=O)[nH]c21 | > 100 | > 100 | > 100 | > 100 | > 100 | > 100 | > 100 | > 100 | > 100 | > 100 |
| O=C(O)c1cnc2[nH]ccn2c1=O | > 100 | > 100 | > 100 | > 100 | > 100 | > 100 | – | > 100 | – | > 100 |
| CCOc1ccc(/C=N/[N+](C)(C)C)cc1OCC | > 10 | > 10 | > 10 | > 10 | > 10 | > 10 | – | > 10 | > 10 | > 10 |
| CSCCCNC(=O)c1csc(-c2csc(C(CNC(=O)OC(C)(C)C)CNC(=O)OC(C)(C)C)n2)n1 | > 100 | > 100 | 71.5 | > 100 | > 100 | > 100 | 73.7 | – | > 100 | > 100 |
| Cc1cccnc1/N=C/c1c(O)n(C)c(=O)[nH]c1=O | > 100 | > 100 | > 100 | > 100 | > 100 | > 100 | > 100 | 87.7 | > 100 | > 100 |
| COc1ccc2sc(-n3nc4ccccc4c3Nc3nc4ccc(OC)cc4s3)nc2c1 | 14 | 5.64 | 11 | 13.8 | 9.97 | 6.17 | > 52.4 | 14.8 | 5.61 | 36.4 |
| CSc1c(C#N)c(N)nc2c(N=Nc3ccc(Cl)cc3)c(N)nn12 | 9.97 | 3.86 | 11 | 39.6 | 35 | 4.15 | 8.82 | 16.4 | 3.43 | 4.49 |
| CCOC(=O)C(C(=S)Nc1ccccc1)c1nn2c(=O)cc(C)nc2s1 (configuration not stated) | 78.7 | 85.2 | 83 | > 100 | 41.1 | 51 | 94.8 | 53.5 | > 100 | > 100 |
| CCN1CCN(c2nc3ccc([N+](=O)[O-])cc3nc2C(=O)c2ccccc2)CC1 | 16.9 | > 100 | 31.9 | 36.1 | – | 30.5 | 29.3 | 28.2 | – | 41.7 |
| N#Cc1c(N)sc2c1-c1ccccc1OC2 | > 100 | – | > 100 | > 100 | > 100 | – | > 100 | > 100 | – | > 100 |
| COC(=O)/C=C/c1ccc2c(c1)CC1(C2)Cc2cc3c(cc2C1=O)CCC3 (configuration not stated) | > 100 | 81.8 | > 100 | – | > 100 | 68.8 | > 100 | > 100 | 78.9 | > 100 |
| O=C(/C=C/c1ccc(/C=C/C(=O)c2ccc(O)cc2)cc1)c1ccc(O)cc1 | > 100 | > 100 | > 100 | > 100 | > 100 | > 100 | > 100 | – | > 100 | > 100 |
| O=C1CCC(=O)N1n1c(Cc2ccc(Cl)cc2)n[nH]c1=O | > 100 | > 100 | > 100 | > 100 | > 100 | > 100 | > 100 | > 100 | > 100 | > 100 |
| COc1ccc(/C=C2\N=C(c3ccccc3)N(N=C3NC(=O)CC(=O)N3)C2=O)cc1 | > 100 | > 100 | > 100 | > 100 | > 100 | > 100 | > 100 | > 100 | > 100 | > 100 |
| N#CCCC1(CCC#N)CCCCCCCCC(CCC#N)(CCC#N)C(=O)C1=O | – | > 100 | > 100 | > 100 | – | > 100 | > 100 | > 100 | > 100 | > 100 |
| O=C1/C(=C/c2cccc(Br)c2)CSC/C1=C\c1cccc(Br)c1 | 4.47 | 21.1 | 3.53 | 15.5 | 3.59 | 9.52 | 12 | 4.43 | – | 11.2 |
| O=C(CCCCCCC(=O)Nc1cccnc1)NO | > 100 | 8.12 | > 54.8 | > 32.1 | – | > 57.5 | 17.9 | > 100 | > 95.3 | > 100 |

| SMILES | TGI (BT-549 breast) [µM] | TGI (T-47D breast) [µM] | TGI (U251 CNS) [µM] | TGI (OVCAR-5 ovarian) [µM] | TGI (SK-MEL-5 melanoma) [µM] | TGI (OVCAR-8 ovarian) [µM] | TGI (SK-MEL-2 melanoma) [µM] | TGI (MALME-3M melanoma) [µM] | TGI (HS 578T breast) [µM] | TGI (SW-620 colon) [µM] |
| --- | --- | --- | --- | --- | --- | --- | --- | --- | --- | --- |
| CC(=O)O[C@@H]1C2=C(C)C=C(O2)[C@H]2O[C@]2(C)C[C@H]2C=C(C(=O)O2)[C@H](OC(C)=O)CC1[C@@]1(C)CO1 (some centres not stated) | 48.5 | 39.7 | 40.1 | 76.8 | > 100 | > 100 | > 100 | 58.4 | – | 26.1 |
| N#C/C(=C\NC(=S)c1ccncc1)c1nc2ccccc2s1 | > 100 | > 100 | > 100 | > 100 | > 100 | > 100 | > 100 | – | > 100 | > 100 |
| O=C(Cc1nccc2c1[nH]c1ccccc12)OC1C#CCSCC#C/C=C\1 (configuration not stated) | > 100 | > 100 | > 100 | – | > 100 | > 100 | – | > 100 | > 100 | > 100 |
| CN(C)c1nncc2[nH]cnc12 | > 100 | > 100 | > 100 | > 100 | > 100 | > 100 | > 100 | – | > 100 | > 100 |
| c1csc(-c2cc(-c3cccs3)c(-c3cccs3)s2)c1 | > 100 | 77 | > 100 | > 100 | > 100 | > 100 | – | > 100 | > 100 | > 100 |
| O=C(O)c1cn2c3c(cc(N4CCN(CCO)CC4)cc3c1=O)SCC2 | – | – | > 100 | > 100 | > 100 | > 100 | > 100 | > 100 | – | > 100 |
| O=C1/C(=C/c2ccccc2O)N=C(c2ccccc2)N1c1nc2ccccc2s1 | – | > 100 | 28.7 | > 100 | 23.3 | 72.6 | 43.4 | – | 58.4 | > 100 |
| COC(=O)c1ccc(C)cc1/C=C1\Cc2ccc(C)cc2C1=O | 30 | 69.6 | 32.3 | 42.3 | 29.7 | 59 | – | 30.1 | 59.4 | 51.3 |
| COc1ccc(/C=C2\CCC(CNc3ccc(OC)cc3)C2=O)cc1 (configuration not stated) | 26.8 | 57.1 | 38.5 | 38.1 | 35.2 | 36.3 | – | 47.3 | > 100 | 12.9 |
| COC(=O)C1=C(O)C(C(=O)OC)[C@]2(O)[C@H](C(=O)OC)[C@H]1C[C@@H](c1c(Cl)cccc1Cl)[C@H]2C(=O)OC (some centres not stated) | 6.99 | 23 | 2.99 | – | 3.02 | 3.66 | 3.33 | 5.25 | 27.3 | 11 |
| N=c1c2c(-c3ccccc3)c[nH]c2ncn1N | > 100 | > 100 | > 100 | > 100 | > 100 | > 100 | > 100 | – | – | > 100 |
| NC1CC2NC3CCCCC3NC2CC1N (configuration not stated) | > 100 | – | > 100 | > 100 | 67.3 | > 100 | > 100 | > 100 | > 100 | > 100 |
| CC1OC2(CC(OCc3ccccc3)C1OCc1ccccc1)OCCO2 (configuration not stated) | > 100 | – | > 100 | > 100 | > 100 | > 100 | > 100 | > 100 | > 100 | > 100 |
| Nc1[nH]c(=S)nc2snnc12 | > 100 | > 100 | – | > 100 | > 100 | > 100 | > 100 | > 100 | > 100 | > 100 |
| Cc1c2cnccc2c(C)c2c1c1ccccc1n2CCCCCCNCc1ccccc1 | – | – | 3.79 | 3.31 | 4.29 | – | 4.24 | 4.61 | – | 1.67 |
| CN1C(=O)[C@@H]2[C@@H]3c4ccccc4N(S(=O)(=O)C(F)(F)F)[C@@H]3c3[nH]c4ccccc4c3[C@@H]2C1=O | > 100 | – | > 100 | > 100 | > 100 | > 100 | > 100 | – | > 100 | > 100 |
| CC(=O)OCC1OC(SC2OC(COC(C)=O)C(OC(C)=O)C(OC(C)=O)C2OC(C)=O)C(OC(C)=O)C(OC(C)=O)C1OC(C)=O (configuration not stated) | > 100 | > 100 | > 100 | > 100 | > 100 | > 100 | – | > 100 | – | > 100 |
| CNC(=O)N(C)COC | – | – | > 100 | > 100 | – | > 100 | > 100 | > 100 | – | > 100 |
| O=C1CCCC/C1=C\c1ccc(Br)cc1 | 28.7 | 51 | 9.79 | – | 44.5 | > 100 | 46.4 | 21.5 | 52.3 | > 100 |
| CCCCNC(=S)Nc1nc(C(=O)NNC(=S)NC2CCCCC2)cs1 | > 100 | > 100 | > 100 | > 100 | > 100 | > 100 | > 100 | > 100 | – | > 100 |
| O=S(=O)(O)ON=C1c2ccccc2-c2ccccc21 | > 100 | > 100 | > 100 | > 100 | > 100 | > 100 | > 100 | – | > 100 | > 100 |
| CC(C)CC(NC(=O)OC(C)(C)C)C(=O)NC(CCC(=O)OCc1ccc([N+](=O)[O-])cc1)C(=O)OCc1ccc([N+](=O)[O-])cc1 (stereo not drawn) (Boc-Leu-Glu(ONb)-ONb; configuration not given here) | – | > 100 | > 100 | > 100 | – | > 100 | 78.3 | > 100 | – | > 100 |
| CC1C2CC(C(S(=O)(=O)N3CCOCC3)/C2=N\O)C1(C)C (configuration not stated) | > 100 | > 100 | – | – | > 100 | > 100 | – | > 100 | > 100 | > 100 |
